Our source for the TGI and GI50 values is PubChem BioAssay (NCI).

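Step 1: Grow cells in 96-well plates. Step 2: Expose to compound for 48 hours at 5 concentrations. Step 3: Interpolate endpoints linearly; if unreached, use highest concentration. At the GI50, growth is halved. TGI: concentration producing complete growth inhibition.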

Among the test systems are HCC-2998 colon; HCT-116 colon; HCT-15 colon; HS 578T breast; IGROV1 ovarian; MALME-3M melanoma; NCI-H460 lung; OVCAR-4 ovarian; TK-10 renal; UACC-257 melanoma.
What all share (test): inhibition of tumour cell growth, NCI panel, 48 h

In the case of `O=C1/C(=C/c2ccccc2)CN(C(=O)CCN2CCOCC2)C/C1=C\c1ccccc1`, the TGI was 3.68 µM in the assay with HCC-2998 colon; 2.04 µM in the assay on HCT-116 colon; 4.96 µM in the assay with HCT-15 colon; 13.1 µM in the assay on HS 578T breast; 18.8 µM in the assay on IGROV1 ovarian; 6.32 µM in the assay on MALME-3M melanoma. Besides, the TGI came to 5.47 µM in the assay on NCI-H460 lung, 8.38 µM with OVCAR-4 ovarian, 24.3 µM in the assay with TK-10 renal and 4.99 µM with UACC-257 melanoma.

Take `Cn1ncnc1[C@H]1c2n[nH]c(=O)c3cc(F)cc(c23)N[C@@H]1c1ccc(F)cc1`: the GI50 with HCC-2998 colon was > 100 µM; in the assay on HCT-116 colon, > 80.4 µM; with HCT-15 colon, > 100 µM; in the assay on HS 578T breast, > 100 µM; in the assay on IGROV1 ovarian it was 74.1 µM; in the assay on MALME-3M melanoma it was > 100 µM. Besides, the GI50 is 0.0354 µM in the assay on NCI-H460 lung, 14.6 µM in the assay on OVCAR-4 ovarian, > 100 µM with TK-10 renal and > 100 µM in the assay with UACC-257 melanoma. Also, the TGI in the assay on HCC-2998 colon, in the assay on HCT-116 colon, in the assay with HCT-15 colon, with HS 578T breast, with IGROV1 ovarian and in the assay with MALME-3M melanoma was > 100 µM each time. In addition, the TGI with NCI-H460 lung, in the assay with OVCAR-4 ovarian, in the assay on TK-10 renal and in the assay on UACC-257 melanoma was > 100 µM in each case.

Consider `O=C(/C=C/Sc1cc(C(F)(F)F)cc(C(F)(F)F)c1)c1ccc(Cl)cc1`, for which the GI50 is 19.2 µM with HCC-2998 colon; 1.83 µM in the assay on HCT-116 colon; 3.04 µM in the assay with HCT-15 colon; 16.5 µM in the assay with HS 578T breast; 2.38 µM in the assay with IGROV1 ovarian; 9.13 µM in the assay with MALME-3M melanoma. Besides, the GI50 is 16.6 µM in the assay with NCI-H460 lung, 13.5 µM with OVCAR-4 ovarian, 22.3 µM with TK-10 renal and 14.1 µM in the assay with UACC-257 melanoma. Also, the TGI in the assay with HCC-2998 colon came to 33.4 µM; in the assay with HCT-116 colon, 4.09 µM; with HCT-15 colon, 11.6 µM; with HS 578T breast, 43.7 µM; in the assay on IGROV1 ovarian, 6.55 µM; with MALME-3M melanoma, 23.4 µM. In addition, the TGI with NCI-H460 lung came out at 36.6 µM; in the assay with OVCAR-4 ovarian, 30.7 µM; in the assay with TK-10 renal, 37.8 µM; in the assay on UACC-257 melanoma, 27.5 µM.

For `COc1cc2nc(N3CCCC3)nc(NCc3ccccc3)c2cc1OC`, the GI50 is 2.13 µM in the assay with HCC-2998 colon; 1.82 µM in the assay on HCT-116 colon; 1.79 µM in the assay on HCT-15 colon; 1.99 µM in the assay with HS 578T breast; 3.66 µM with IGROV1 ovarian; 1.84 µM in the assay with MALME-3M melanoma. For the same molecule, the GI50 with NCI-H460 lung was 2.95 µM; in the assay with OVCAR-4 ovarian it was 2.95 µM; in the assay with TK-10 renal it was 1.9 µM; with UACC-257 melanoma, 1.96 µM. In addition, the TGI in the assay with HCC-2998 colon stood at 4.25 µM; in the assay with HCT-116 colon, 4.12 µM; in the assay with HCT-15 colon, 4.22 µM; in the assay on HS 578T breast it was 4.5 µM; in the assay on IGROV1 ovarian, 16.2 µM; in the assay with MALME-3M melanoma, 3.34 µM. Besides, the TGI turned out to be 8.73 µM with NCI-H460 lung, 11.3 µM in the assay with OVCAR-4 ovarian, 3.71 µM in the assay with TK-10 renal and 4.04 µM in the assay with UACC-257 melanoma.

As for `COc1cc(C(=O)c2c(-c3ccccc3)oc3c(OC)cccc23)cc(OC)c1OC`, the GI50 is 0.211 µM in the assay with HCC-2998 colon; 0.0444 µM with HCT-15 colon; 0.0984 µM in the assay on HS 578T breast; 0.0677 µM in the assay on IGROV1 ovarian; 1.32 µM in the assay with MALME-3M melanoma; 0.0518 µM with NCI-H460 lung. Moreover, the results for the GI50 with TK-10 renal and in the assay on UACC-257 melanoma were 10 µM and 28.3 µM, respectively. In addition, the TGI was > 100 µM with HCC-2998 colon; > 100 µM in the assay on HCT-15 colon; > 24.1 µM with HS 578T breast; > 100 µM in the assay on IGROV1 ovarian; > 100 µM in the assay with MALME-3M melanoma; > 100 µM in the assay with NCI-H460 lung. In addition, the figures for the TGI with OVCAR-4 ovarian, in the assay with TK-10 renal and with UACC-257 melanoma were > 100 µM, > 62.2 µM and > 100 µM, respectively.

For `COC1CC(O[C@H]2CC[C@@]3(C)[C@H](CC[C@@H]4[C@@H]3CC[C@]3(C)[C@@H](C5=CC(=O)OC5)[C@@H](OC(C)=O)C[C@]43O)C2)OC(C)C1O` (some centres undefined), the GI50 in the assay on HCC-2998 colon, in the assay on HCT-116 colon, in the assay with HCT-15 colon, in the assay with HS 578T breast, in the assay on IGROV1 ovarian and with MALME-3M melanoma was < 0.01 µM throughout. In addition, the GI50 with NCI-H460 lung, in the assay on OVCAR-4 ovarian, in the assay on TK-10 renal and in the assay on UACC-257 melanoma was < 0.01 µM each time. Moreover, the TGI with HCC-2998 colon is < 0.0187 µM; in the assay on HCT-116 colon it was < 0.01 µM; with HCT-15 colon it was < 0.01 µM; with HS 578T breast, < 0.0145 µM; in the assay with IGROV1 ovarian, < 0.01 µM; with MALME-3M melanoma it was < 0.01 µM. Also, the TGI with NCI-H460 lung, in the assay on OVCAR-4 ovarian, in the assay with TK-10 renal and in the assay on UACC-257 melanoma was < 0.01 µM in each case.

Regarding `C=CCN=C(N/N=C/c1ccc([N+](=O)[O-])o1)NS(=O)(=O)c1cc(C(=O)Nc2ccc(Cl)cc2)c(Cl)cc1SC`, the GI50 with HCC-2998 colon was 2.29 µM; in the assay on HCT-116 colon it was 0.935 µM; in the assay on HCT-15 colon it was 2.97 µM; in the assay on HS 578T breast, > 41.9 µM; in the assay on IGROV1 ovarian, > 69.9 µM; in the assay on MALME-3M melanoma, 5.08 µM. The GI50 with NCI-H460 lung was 2.22 µM; with TK-10 renal it was > 90.8 µM; in the assay on UACC-257 melanoma it was 4.28 µM. Further, the TGI was 5.96 µM in the assay with HCC-2998 colon; 4.04 µM with HCT-116 colon; 13.5 µM in the assay on HCT-15 colon; > 100 µM with HS 578T breast; > 100 µM in the assay with IGROV1 ovarian; 63.4 µM in the assay on MALME-3M melanoma. The TGI with NCI-H460 lung is > 35.2 µM; in the assay with OVCAR-4 ovarian, > 34.1 µM; in the assay with TK-10 renal, > 100 µM; in the assay on UACC-257 melanoma, > 59.9 µM.

Take `O=C(C/C(=N/O)C(=O)NC1=C(Cl)C(=O)c2ccccc2C1=O)CC(c1ccccc1)c1c(O)c2ccccc2oc1=O` (centres undefined): the TGI in the assay with HCC-2998 colon was 25.6 µM; with HCT-116 colon, 20.6 µM; in the assay with HCT-15 colon, 14.4 µM; with HS 578T breast it was 50.6 µM; in the assay with IGROV1 ovarian, > 100 µM; with MALME-3M melanoma, 4.55 µM. The TGI with NCI-H460 lung was 16 µM; in the assay with OVCAR-4 ovarian it was 22.2 µM; in the assay on UACC-257 melanoma it was > 100 µM.

`C/C(=N/NC(=S)N1CCCCC1)c1ccccc1O`: the TGI in the assay on HCC-2998 colon was > 31.6 µM; in the assay on HCT-15 colon, > 31.6 µM; with HS 578T breast, > 31.6 µM; in the assay with IGROV1 ovarian, > 100 µM; in the assay with MALME-3M melanoma, > 31.6 µM; in the assay with NCI-H460 lung, > 31.6 µM. For the same molecule, the TGI with OVCAR-4 ovarian, in the assay on TK-10 renal and in the assay with UACC-257 melanoma was > 31.6 µM in each case.
